Data published in publication PMC6572064, “Discovery of 2-(1-(3-(4-Chloroxyphenyl)-3-oxo- propyl)pyrrolidine-3-yl)-1H-benzo[d]imidazole-4-carboxamide: A Potent Poly(ADP-ribose) Polymerase (PARP) Inhibitor for Treatment of Cancer” (Molecules, 2019).
Where two headings read alike, the source gives them in different places.

Columns and labels:
[1] = system: MDA-MB-436 (a BRCA-1-mutated breast cancer cell line); assay: Cell proliferation assay, three-day, CellTiter-Glo, MDA-MB-436; assay type: cell-based; settings: for inhibition at 0.00508 µM / inhibition at 0.0152 µM / inhibition at 0.0457 µM / inhibition at 0.41 µM / inhibition at 1.23 µM / inhibition at 3.7 µM / inhibition at 11.11 µM / inhibition at 33.33 µM / inhibition at 100 µM / IC50: Homo sapiens; for inhibition at 0.00508 µM: MDA-MB-436, MDA-MB-436, Conc. 0.00508 uM; for inhibition at 0.0152 µM: MDA-MB-436, MDA-MB-436, Conc. 0.0152 uM; for inhibition at 0.0457 µM: MDA-MB-436, MDA-MB-436, Conc. 0.0457 uM; for inhibition at 0.41 µM: MDA-MB-436, MDA-MB-436, Conc. 0.41 uM; for inhibition at 1.23 µM: MDA-MB-436, MDA-MB-436, Conc. 1.23 uM; for inhibition at 3.7 µM: MDA-MB-436, MDA-MB-436, Conc. 3.70 uM; for inhibition at 11.11 µM: MDA-MB-436, MDA-MB-436, Conc. 11.11 uM; for inhibition at 33.33 µM: MDA-MB-436, MDA-MB-436, Conc. 33.33 uM; for inhibition at 100 µM: MDA-MB-436, MDA-MB-436, Conc. 100.00 uM
In short: (§1)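 Luminescent ATP read-out (CellTiter-Glo, 60 min at room temperature) quantified viability after a 72 h compound exposure at 37 °C, 5% CO2. Compounds, diluted from DMSO stocks into growth medium, were added to cells plated the previous day.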

[2] = target: T1, PARP-2 (Homo sapiens, UniProt Q9UGN5); assay: PARP-2 inhibition assay (PARP-2 Chemiluminescent Assay Kit, BPS Bioscience); assay type: biochemical; settings: for inhibition at 0.01 µM: 10 nM compound
T1 construct: purchased BPS Bioscience 80552
Procedure: (§2) The PARP-1 and PARP-2 inhibition assays were performed in outsourcing, by a CRO company, Shanghai Medicilon Inc. (Shanghai, China). […] Briefly, PARP-1 or PARP-2 biotinylated substrate was incubated with compounds or solvent control at varying concentrations and an assay buffer containing the PARP-1 or PARP-2 enzyme.

[3] = system: CAPAN-1 (a BRCA-2-mutated pancreatic cancer cell line); assay: Cell proliferation assay, three-day, CellTiter-Glo, CAPAN-1; assay type: cell-based; settings: for IC50 / inhibition at 0.00508 µM / inhibition at 0.0152 µM / inhibition at 0.0457 µM / inhibition at […] / inhibition at 0.41 µM / inhibition at 1.23 µM / inhibition at 3.7 µM / inhibition at 11.11 µM / inhibition at 33.33 µM / inhibition at 100 µM: Homo sapiens; for inhibition at 0.00508 µM: CAPAN-1, Conc. 0.00508 uM; for inhibition at 0.0152 µM: CAPAN-1, Conc. 0.0152 uM; for inhibition at 0.0457 µM: CAPAN-1, Conc. 0.0457 uM; for inhibition at […]: CAPAN-1, Conc. 0.14 uM; for inhibition at 0.41 µM: CAPAN-1, Conc. 0.41 uM; for inhibition at 1.23 µM: CAPAN-1, Conc. 1.23 uM; for inhibition at 3.7 µM: CAPAN-1, Conc. 3.70 uM; for inhibition at 11.11 µM: CAPAN-1, Conc. 11.11 uM; for inhibition at 33.33 µM: CAPAN-1, Conc. 33.33 uM; for inhibition at 100 µM: CAPAN-1, Conc. 100.00 uM
In short: as §1

[4] = target: T2, PARP-1 (Homo sapiens, UniProt P09874); assay: PARP-1 inhibition assay (PARP-1 Chemiluminescent Assay Kit, BPS Bioscience); assay type: biochemical; settings: for inhibition at 0.01 µM: 10 nM compound
T2 construct: purchased BPS Bioscience 80569
Procedure: as §2

T2 sequence (P09874 whole entry): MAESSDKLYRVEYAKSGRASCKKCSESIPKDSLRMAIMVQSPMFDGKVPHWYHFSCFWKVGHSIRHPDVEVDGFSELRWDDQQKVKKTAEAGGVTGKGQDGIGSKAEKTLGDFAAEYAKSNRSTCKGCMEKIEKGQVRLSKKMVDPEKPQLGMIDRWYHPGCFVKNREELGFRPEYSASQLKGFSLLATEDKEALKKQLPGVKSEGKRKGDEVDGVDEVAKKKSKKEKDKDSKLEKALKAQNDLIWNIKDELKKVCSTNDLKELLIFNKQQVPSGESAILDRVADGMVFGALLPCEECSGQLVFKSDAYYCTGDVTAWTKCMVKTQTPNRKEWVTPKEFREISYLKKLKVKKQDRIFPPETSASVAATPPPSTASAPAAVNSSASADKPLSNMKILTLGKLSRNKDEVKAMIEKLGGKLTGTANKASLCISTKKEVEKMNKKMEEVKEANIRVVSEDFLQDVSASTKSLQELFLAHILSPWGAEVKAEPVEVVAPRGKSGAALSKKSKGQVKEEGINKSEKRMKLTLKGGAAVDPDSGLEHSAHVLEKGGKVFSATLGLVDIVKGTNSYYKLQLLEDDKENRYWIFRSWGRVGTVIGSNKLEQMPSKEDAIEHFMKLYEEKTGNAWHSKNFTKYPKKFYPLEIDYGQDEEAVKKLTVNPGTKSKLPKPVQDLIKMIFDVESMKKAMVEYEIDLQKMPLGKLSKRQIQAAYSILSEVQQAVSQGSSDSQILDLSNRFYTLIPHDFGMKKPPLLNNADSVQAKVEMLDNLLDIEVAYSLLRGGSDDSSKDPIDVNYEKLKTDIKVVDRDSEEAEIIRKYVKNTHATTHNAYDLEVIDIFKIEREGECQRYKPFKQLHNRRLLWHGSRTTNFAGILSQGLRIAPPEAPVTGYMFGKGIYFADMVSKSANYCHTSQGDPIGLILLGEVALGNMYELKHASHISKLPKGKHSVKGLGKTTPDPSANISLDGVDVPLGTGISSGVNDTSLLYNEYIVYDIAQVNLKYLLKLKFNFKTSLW
T1 sequence (Q9UGN5 whole entry): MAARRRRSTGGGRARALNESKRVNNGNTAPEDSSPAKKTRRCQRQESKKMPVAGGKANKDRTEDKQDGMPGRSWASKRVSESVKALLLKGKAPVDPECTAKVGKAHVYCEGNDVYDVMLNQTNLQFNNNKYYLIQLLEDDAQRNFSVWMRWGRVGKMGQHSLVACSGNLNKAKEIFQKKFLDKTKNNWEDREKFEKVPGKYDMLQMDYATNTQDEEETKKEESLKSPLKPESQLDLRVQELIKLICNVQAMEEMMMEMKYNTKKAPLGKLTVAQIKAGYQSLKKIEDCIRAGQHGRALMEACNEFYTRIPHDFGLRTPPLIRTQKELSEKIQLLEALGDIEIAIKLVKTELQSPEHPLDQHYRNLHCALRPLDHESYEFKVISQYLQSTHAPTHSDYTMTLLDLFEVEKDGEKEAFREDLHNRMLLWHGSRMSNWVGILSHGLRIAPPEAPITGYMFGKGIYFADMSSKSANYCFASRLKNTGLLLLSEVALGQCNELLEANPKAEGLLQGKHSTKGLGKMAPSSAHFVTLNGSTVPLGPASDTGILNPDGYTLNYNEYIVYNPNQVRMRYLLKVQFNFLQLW

IC50 ([1]; MDA-MB-436, 72 h, CellTiter-Glo, read-out: MDA-MB-436 IC50): 19.8 µM
IC50 ([1]; MDA-MB-436, 72 h, supplement Summary sheet, read-out: IC50): 19.8 µM
IC50 ([1]; MDA-MB-436, curve-fit parameter list, concentrations in uM, read-out: IC50): 19.8 µM
inhibition at 0.01 µM ([2]; supplement sheet, read-out: 10 nM inhibition% PAPR-2): 76.8%
inhibition at 0.01 µM ([2]; read-out: PARP-2 Inhibition % (10 nM)): 76.7%
IC50 ([2]; read-out: PARP-2 IC50): 3.2 nM
IC50 ([2]; supplement sheet, read-out: IC50 PAPR-2): 3.15 nM
IC50 ([3]; CAPAN-1, 72 h, CellTiter-Glo, read-out: CAPAN-1 IC50): 15.5 µM
IC50 ([3]; CAPAN-1, 72 h, supplement Summary sheet, read-out: IC50): 15.5 µM
IC50 ([3]; CAPAN-1, curve-fit output, concentration axis Log (uM), read-out: IC50): 15.5 µM
inhibition at 0.01 µM ([4]; supplement sheet, read-out: 10 nM inhibition% PAPR-1): 68%
inhibition at 0.01 µM ([4]; read-out: PARP-1 Inhibition % (10 nM)): 68%
IC50 ([4]; read-out: PARP-1 IC50): 3.6 nM
IC50 ([4]; supplement sheet, read-out: IC50 PAPR-1): 3.64 nM
Compound: NC(=O)c1cccc2[nH]c(C3CCN(CCC(=O)c4ccccc4)C3)nc12 (centres unmarked) [Compound 5cp, 2-(1-(3-Oxo-3-phenylpropyl)pyrrolidin-3-yl)-1H-benzo[d]imidazole-4-carboxamide]
inhibition at 0.00508 µM ([1]; replicate 1, read-out: Inh % 1): -1.4%
inhibition at 0.00508 µM ([1]; replicate 2, read-out: Inh % 2): -0.3%
inhibition at 0.0152 µM ([1]; replicate 1, read-out: Inh % 1): -1.8%
inhibition at 0.0152 µM ([1]; replicate 2, read-out: Inh % 2): -8.4%
inhibition at 0.0457 µM ([1]; replicate 1, read-out: Inh % 1): -13.1%
inhibition at 0.0457 µM ([1]; replicate 2, read-out: Inh % 2): -7%
inhibition at 0.41 µM ([1]; replicate 1, read-out: Inh % 1): -6.8%
inhibition at 0.41 µM ([1]; replicate 2, read-out: Inh % 2): -9.9%
inhibition at 1.23 µM ([1]; replicate 1, read-out: Inh % 1): -10%
inhibition at 1.23 µM ([1]; replicate 2, read-out: Inh % 2): -7.6%
inhibition at 3.7 µM ([1]; replicate 1, read-out: Inh % 1): -1.8%
inhibition at 3.7 µM ([1]; replicate 2, read-out: Inh % 2): -0.0749%
inhibition at 11.11 µM ([1]; replicate 1, read-out: Inh % 1): 7.8%
inhibition at 11.11 µM ([1]; replicate 2, read-out: Inh % 2): 4.7%
inhibition at 33.33 µM ([1]; replicate 1, read-out: Inh % 1): 91.6%
inhibition at 33.33 µM ([1]; replicate 2, read-out: Inh % 2): 79.7%
inhibition at 100 µM ([1]; replicate 1, read-out: Inh % 1): 99.8%
inhibition at 100 µM ([1]; replicate 2, read-out: Inh % 2): 99.4%
LogIC50 ([1]; MDA-MB-436, curve-fit parameter list, Log (uM)): 1.296
Inh % 1 ([3]; CAPAN-1, Conc. printed as #REF!, replicate 1): 18.8%
Inh % 2 ([3]; CAPAN-1, Conc. printed as #REF!, replicate 2): 21.3%
LogIC50 ([3]; CAPAN-1, curve-fit output, concentration axis Log (uM)): 1.19
inhibition at 0.00508 µM ([3]; replicate 1, read-out: Inh % 1): -4.4%
inhibition at 0.00508 µM ([3]; replicate 2, read-out: Inh % 2): -9.4%
inhibition at 0.0152 µM ([3]; replicate 1, read-out: Inh % 1): 3.3%
inhibition at 0.0152 µM ([3]; replicate 2, read-out: Inh % 2): -2.6%
inhibition at 0.0457 µM ([3]; replicate 1, read-out: Inh % 1): 0.846%
inhibition at 0.0457 µM ([3]; replicate 2, read-out: Inh % 2): -4.3%
inhibition at […] ([3]; replicate 1, read-out: Inh % 1): 4.9%
inhibition at […] ([3]; replicate 2, read-out: Inh % 2): -2.2%
inhibition at 0.41 µM ([3]; replicate 1, read-out: Inh % 1): -7.8%
inhibition at 0.41 µM ([3]; replicate 2, read-out: Inh % 2): -11.6%
inhibition at 1.23 µM ([3]; replicate 1, read-out: Inh % 1): 17.2%
inhibition at 1.23 µM ([3]; replicate 2, read-out: Inh % 2): -4.7%
inhibition at 3.7 µM ([3]; replicate 1, read-out: Inh % 1): -2.4%
inhibition at 3.7 µM ([3]; replicate 2, read-out: Inh % 2): -0.7%
inhibition at 11.11 µM ([3]; replicate 1, read-out: Inh % 1): 18.7%
inhibition at 11.11 µM ([3]; replicate 2, read-out: Inh % 2): 8.5%
inhibition at 33.33 µM ([3]; replicate 1, read-out: Inh % 1): 98.2%
inhibition at 33.33 µM ([3]; replicate 2, read-out: Inh % 2): 97.2%
inhibition at 100 µM ([3]; replicate 1, read-out: Inh % 1): 99.7%
inhibition at 100 µM ([3]; replicate 2, read-out: Inh % 2): 99.1%
